In US20210386367A1, “DEVICES AND SYSTEMS FOR GASTROINTESTINAL MICROBIOME DETECTION AND MANIPULATION” (Progenity, Inc., priority 2018, published 2021):
Converted amounts (≈) assume the structure as drawn. Where two headings read alike, the source gives them in different places.

Assays:
[1] = tested on: E. coli ATCC 25922; experiment: Broth microdilution MIC (time-kill study); assay type: cell-based, Escherichia coli
[2] = tested on: Bacteroides non fragilis; experiment: Agar dilution MIC, 29 clinical isolates; assay type: cell-based, Bacteroides spp.
[3] = tested on: S. pneumoniae ATCC 49619; settings: cited from earlier work
[4] = tested on: Bacteroides spp. (B. fragilis ATCC 25285, B. vulgatus, B. ovatus MMX 3503); experiment: Agar dilution MIC (spontaneous mutation study; strain in conditions); assay type: cell-based
[5] = tested on: E. coli, Streptococcus spp., and Bacteroides spp. isolates; assay type: cell-based
Method: Initial values of the MIC were determined by agar dilution in accordance with guidelines from the Clinical and Laboratory Standards Institute (CLSI; (1) “Methods for Dilution Antimicrobial Susceptibility Tests for Bacteria That Grow Aerobically; Approved Standard; 11th ed.,” CLSI standard M07, 2018; (2) “Methods for Antimicrobial Susceptibility Testing of Anaerobic Bacteria; Approved Standard—Eighth Edition,” CLSI document M11-A8, 2012.).
If there were no colonies on the antibiotic selection plates, the spontaneous mutation frequency was reported as less than the frequency observed with one colony to indicate that the spontaneous mutation frequency was less than the limit of detection (one CFU). […] The mutation prevention concentration (MPC) was reported as the lowest concentration for which no mutants were selected.

[6] = tested on: Bacteroides spp. spontaneous mutants; experiment: Broth microdilution MIC of spontaneous mutants; assay type: cell-based; settings: read-out: MIC
In short: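 Isolates from drug selection plates were subcultured on agar containing drug at the selection concentration and identified by MALDI, then MIC was determined by CLSI broth microdilution (M100-S28) with serial two-fold dilutions. Plates were pre-reduced 1 h in an anaerobic chamber; final inoculum ~1×10^6 CFU/mL.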

[7] = tested on: Veillonella spp. clinical isolates; experiment: MIC distribution against clinical isolates; assay type: cell-based; settings: 30 Veillonella spp. isolates
Source text: (n=19 V. parvula, n=9 Veillonella spp., n=1 Veillonella dispr., n=1 V. atypica) clinical isolates (μg/mL).
As used herein, “minimum inhibitory concentration” or “MIC” refers to the lowest concentration of an antimicrobial agent, for example, an antimicrobial agent as described herein, required to inhibit the growth of an organism. […] “MIC90” represents the MIC value at which ≥90% of the strains within a test population are inhibited; the 90th percentile.
Many susceptibility testing methods are known in the art and can be used as described herein (see, e.g., Jorgensen and Ferraro (2009) Clinical Infectious Diseases 49:1749-1755; and Maurer et al. (2017) Infectious Disease Reports 9:6839; the entire contents of each of the foregoing are incorporated herein by reference). For example, antimicrobial susceptibility can be determined using conventional culture based methods such as the broth or agar dilution test. In these dilution tests, the bacterial isolate of interest is inoculated onto different media that include serial dilutions of an antimicrobial agent, and incubated under appropriate conditions (e.g., overnight at 37° C.) to allow for growth to occur. Following the incubation period, the media is examined to determine bacterial growth. The lowest concentration of antibiotic that prevents growth represents the minimal inhibitory concentration (MIC). Broth dilution tests can be miniaturized and mechanized allowing for reproducibility and high throughput.

[8] = 29 Bacteroides non-fragilis clinical isolates

Compound: C[C@@H](O)[C@H]1C(=O)N2C(C(=O)O)=C(S[C@@H]3CN[C@H](C(=O)N(C)C)C3)[C@H](C)[C@H]12 [meropenem]
- MIC ([1]; E. coli ATCC 25922): 0.015 µg/mL (≈ 0.0391 µM)
- MIC ([1]; Escherichia coli, ATCC25922, broth microdilution, read-out: MIC): 0.015 µg/mL (≈ 0.0391 µM)
- isolates with intermediate resistance [2]: Three
- % I [2, 8]: 3%
- % S [2, 8]: 97%
- MIC50 [2, 8]: 0.5 µg/mL (≈ 1.3 µM)
- MIC90 [2, 8]: 2 µg/mL (≈ 5.22 µM)
- MIC50 ([2]; Bacteroides, read-out: MIC50): 0.5 µg/mL (≈ 1.3 µM)
- MIC90 ([2]; Bacteroides, read-out: MIC90): 2 µg/mL (≈ 5.22 µM)
- Mode ([2]; modal MIC, 29 Bacteroides non-fragilis clinical isolates): 0.5 µg/mL
- CLSI QC range (MIC) [3]: (0.03-0.25)^1 μg/mL
- MIC ([4]; Bacteroides fragilis, ATCC25285, read-out: Agar MIC): 0.12 µg/mL (≈ 0.313 µM)
- MIC ([4]; Bacteroides ovatus, ATCC25285, read-out: Agar MIC): 0.12 µg/mL (≈ 0.313 µM)
- MIC ([4]; Phocaeicola vulgatus, ATCC 25285 / ATCC 8482, read-out: Agar MIC): 0.12 µg/mL (≈ 0.313 µM)
- MIC ([4]; over evaluated Bacteroides spp., read-out: MIC values (agar dilution)): 0.008 to 0.12 µg/mL (≈ 0.0209 to 0.313 µM)
- propensity for spontaneous resistance ([5]; SIBO pathogens in vitro): little propensity for resistance to develop spontaneously
- MPC values ([5]; across the evaluated isolates): equivalent to 4× the MIC
- MIC ([6]; B. fragilis ATCC 25285, selected on rifaximin 4X MIC, Colony A): 0.03 µg/mL
- MIC ([6]; B. fragilis ATCC 25285, selected on rifaximin 4X MIC, Colony B): 0.06 µg/mL
- MIC ([6]; B. fragilis ATCC 25285, selected on rifaximin 8X MIC, Colony A): 0.06 µg/mL
- MIC ([6]; B. fragilis ATCC 25285, selected on rifaximin 8X MIC, Colony B): 0.06 µg/mL
- MIC ([6]; B. fragilis ATCC 25285 Parent): 0.06 µg/mL
- MIC ([6]; B. ovatus MMX 3503, selected on rifaximin 4X MIC, Colony A): 0.12 µg/mL
- MIC ([6]; B. ovatus MMX 3503, selected on rifaximin 4X MIC, Colony B): 0.12 µg/mL
- MIC ([6]; B. ovatus MMX 3503, selected on rifaximin 8X MIC, Colony A): 0.12 µg/mL
- MIC ([6]; B. ovatus MMX 3503, selected on rifaximin 8X MIC, Colony B): 0.12 µg/mL
- MIC ([6]; B. ovatus MMX 3503 Parent): 0.12 µg/mL
- MIC ([6]; B. vulgatus ATCC 8482, selected on ceftriaxone 4X MIC, Colony A): 0.25 µg/mL
- MIC ([6]; B. vulgatus ATCC 8482, selected on ceftriaxone 4X MIC, Colony B): 0.25 µg/mL
- MIC ([6]; B. vulgatus ATCC 8482, selected on rifaximin 4X MIC, Colony A): 0.12 µg/mL
- MIC ([6]; B. vulgatus ATCC 8482, selected on rifaximin 4X MIC, Colony B): 0.12 µg/mL
- MIC ([6]; B. vulgatus ATCC 8482, selected on rifaximin 8X MIC, Colony A): 0.25 µg/mL
- MIC ([6]; B. vulgatus ATCC 8482, selected on rifaximin 8X MIC, Colony B): 0.12 µg/mL
- MIC ([6]; B. vulgatus ATCC 8482 Parent (Table 50)): 0.12 µg/mL
- MIC ([6]; B. vulgatus ATCC 8482 Parent (Table 54)): 0.12 µg/mL
- Cumulative percentage of isolates inhibited at MIC ([7]; MIC 0.5 μg/mL): 43.3%
- Number of test isolates at MIC ([7]; MIC 0.5 μg/mL): 2
- Cumulative percentage of isolates inhibited at MIC ([7]; MIC 1 μg/mL): 53.3%
- Number of test isolates at MIC ([7]; MIC 1 μg/mL): 3
- Cumulative percentage of isolates inhibited at MIC ([7]; MIC 2 μg/mL): 70.0%
- Number of test isolates at MIC ([7]; MIC 2 μg/mL): 5
- Cumulative percentage of isolates inhibited at MIC ([7]; MIC 4 μg/mL): 76.7%
- Number of test isolates at MIC ([7]; MIC 4 μg/mL): 2
- Cumulative percentage of isolates inhibited at MIC ([7]; MIC 8 μg/mL): 100.0%
- Number of test isolates at MIC ([7]; MIC 8 μg/mL): 7
